Source: publication PMC5513037, “Examining the influence of specificity ligands and ATP-competitive ligands on the overall effectiveness of bivalent kinase inhibitors” (Proteome Science, 2017)
One block for each molecule: values may come before it.

Assays:
CHD5 = molecular target: T1, CHD5 (Homo sapiens, UniProt Q8TDI0); assay: Imatinib-matrix competition in K562 lysate; format: binding; conditions: read-out: RB50 (the source's name)
T1 construct: endogenous in cells; host or cells: K562
From the text: (§1) Data were visualized for further analysis using Spotfire DXP.

SRM = molecular target: T2, SRM (Homo sapiens, UniProt P19623); assay: Imatinib-matrix competition in K562 lysate; format: binding; conditions: read-out: RB50 (the source's name)
T2 construct: K562 lysate (5 mg per treatment) was preincubated; endogenous in cells; host or cells: K562 lysate
From the text: as §1

PBK = molecular target: T3, PBK (Homo sapiens, UniProt Q96KB5); assay: Imatinib-matrix competition in K562 lysate; format: binding; conditions: read-out: RB50 (the source's name)
T3 construct: endogenous in cells; host or cells: K562
T3 sequence (Q96KB5 1-322): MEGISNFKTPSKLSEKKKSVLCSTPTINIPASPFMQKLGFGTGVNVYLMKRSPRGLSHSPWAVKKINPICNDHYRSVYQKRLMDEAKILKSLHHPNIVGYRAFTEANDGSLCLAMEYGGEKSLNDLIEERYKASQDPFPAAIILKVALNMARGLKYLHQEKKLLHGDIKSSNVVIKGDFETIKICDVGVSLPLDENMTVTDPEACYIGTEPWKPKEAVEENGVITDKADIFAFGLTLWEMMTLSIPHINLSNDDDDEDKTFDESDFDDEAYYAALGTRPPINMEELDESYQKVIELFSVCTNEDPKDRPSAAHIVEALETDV
From the text: as §1

ALPK3 = molecular target: T4, ALPK3 (Homo sapiens, UniProt Q96L96); assay: Imatinib-matrix competition in K562 lysate; format: binding; conditions: read-out: RB50 (the source's name)
T4 construct: endogenous in cells; host or cells: K562
From the text: as §1

PRKDC = molecular target: T5, PRKDC (Homo sapiens, UniProt P78527); assay: Imatinib-matrix competition in K562 lysate; format: binding; conditions: read-out: RB50 (the source's name)
T5 construct: endogenous in cells; host or cells: K562
From the text: as §1

EEF2K = molecular target: T6, EEF2K (Homo sapiens, UniProt O00418); assay: Imatinib-matrix competition in K562 lysate; format: binding; conditions: read-out: RB50 (the source's name)
T6 construct: endogenous in cells; host or cells: K562 lysate
T6 sequence (O00418 1-725): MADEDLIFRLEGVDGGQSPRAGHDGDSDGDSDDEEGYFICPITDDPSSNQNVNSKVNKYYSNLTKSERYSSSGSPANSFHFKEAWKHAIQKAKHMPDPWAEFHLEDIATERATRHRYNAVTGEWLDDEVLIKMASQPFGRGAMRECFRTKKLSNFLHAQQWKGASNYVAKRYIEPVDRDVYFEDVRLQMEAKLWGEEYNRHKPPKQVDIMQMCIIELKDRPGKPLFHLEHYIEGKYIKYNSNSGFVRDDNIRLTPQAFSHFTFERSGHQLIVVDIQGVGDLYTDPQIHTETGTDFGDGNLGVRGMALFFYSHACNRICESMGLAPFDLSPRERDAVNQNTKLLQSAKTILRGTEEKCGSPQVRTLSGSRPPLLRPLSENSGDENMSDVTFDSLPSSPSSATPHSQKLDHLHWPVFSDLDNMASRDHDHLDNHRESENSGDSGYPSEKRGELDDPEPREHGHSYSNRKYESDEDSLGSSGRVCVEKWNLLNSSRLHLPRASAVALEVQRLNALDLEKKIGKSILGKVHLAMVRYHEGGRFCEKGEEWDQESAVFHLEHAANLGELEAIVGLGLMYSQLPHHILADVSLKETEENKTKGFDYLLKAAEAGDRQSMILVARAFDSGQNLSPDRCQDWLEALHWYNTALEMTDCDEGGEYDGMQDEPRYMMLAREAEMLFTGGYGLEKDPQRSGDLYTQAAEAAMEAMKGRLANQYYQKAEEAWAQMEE
From the text: as §1

TRIM33 = molecular target: T7, TRIM33 (Homo sapiens, UniProt Q9UPN9); assay: Imatinib-matrix competition in K562 lysate; format: binding; conditions: read-out: RB50 (the source's name)
T7 construct: endogenous in cells; host or cells: K562
From the text: as §1

VRK3 = molecular target: T8, VRK3 (Homo sapiens, UniProt Q8IV63); assay: Imatinib-matrix competition in K562 lysate; format: binding; conditions: read-out: RB50 (the source's name)
T8 construct: endogenous in cells; host or cells: K562
From the text: as §1

CDC7 = molecular target: T9, CDC7 (Homo sapiens, UniProt O00311); assay: Imatinib-matrix competition in K562 lysate; format: binding; conditions: read-out: RB50 (the source's name)
T9 construct: endogenous in cells; host or cells: K562 lysate
From the text: as §1

NRK = molecular target: T10, NRK (Homo sapiens, UniProt Q7Z2Y5); assay: Imatinib-matrix competition in K562 lysate; format: binding; conditions: read-out: RB50 (the source's name)
T10 construct: endogenous in cells; host or cells: K562
From the text: as §1

TTN = molecular target: T11, TTN (Homo sapiens, UniProt Q8WZ42); assay: Imatinib-matrix competition in K562 lysate; format: binding; conditions: read-out: RB50 (the source's name)
T11 construct: endogenous in cells; host or cells: K562
From the text: as §1

BRD4 = molecular target: T12, BRD4 (Homo sapiens, UniProt O60885); assay: Imatinib-matrix competition in K562 lysate; format: binding; conditions: read-out: RB50 (the source's name)
T12 construct: endogenous in cells; host or cells: K562
From the text: as §1

ATM = ATM (Homo sapiens, UniProt Q13315); assay: KAM-matrix competition in K562 lysate; format: binding; design: endogenous in cells; host or cells: K562;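 as to 0.001 uM KAM: median log10 fold change of treatment over DMSO control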;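 as to 0.01 uM KAM: median log10 fold change of treatment over DMSO control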;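 as to 0.1 uM KAM: median log10 fold change of treatment over DMSO control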;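 as to 1 uM KAM: median log10 fold change of treatment over DMSO control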;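 as to 10 uM KAM: median log10 fold change of treatment over DMSO control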
Experimental: Supplement 12953_2017_125_MOESM1_ESM.zip/MS_Supp Info.xlsx, sheet "KAM" | column: 10 uM KAM; 1 uM KAM; 0.1 uM KAM; 0.01 uM KAM; 0.001 uM KAM; RB50

ABL1 = assay: KAM-matrix competition in K562 lysate; format: binding, human
Experimental: For synthesis of KAM-derivatized resin, packed NHS-activated sepharose 4 fast flow resin (volume = 2 mL; GE Healthcare) was washed with anhydrous DMSO (3 × 10 mL). To the washed NHS-activated sepharose resin was added 0.5 mM KAM in anhydrous DMSO (8 mL; 2 μmol compound/mL of resin), followed by the addition of triethylamine (30 μL). The reaction mixture was vortexed to mix and pelleted by centrifugation (100 x g, 2 min). An aliquot of the supernatant (50 μL) was saved for LC/MS analysis. The reaction mixture was allowed incubate overnight at room temp with end-over-end rotating agitation. On the following day, the reaction mixture was pelleted by centrifugation (100 x g, 2 min). An aliquot of the supernatant (50 μL) was saved for LC/MS analysis. […] 2-(2-Aminoethoxy)ethanol (100 μL; Sigma-Aldrich) was added to the reaction mixture, vortexed, and incubate overnight at room temp with end-over-end agitation. The KAM-derivatized resin was then washed with anhydrous DMSO (3 × 10 mL) and 95% EtOH (3 × 10 mL).
as §1

- IC50 (CHD5): > 10 µM
- IC50 (SRM): > 10 µM
- IC50 (PBK): > 10 µM
- IC50 (ALPK3): > 10 µM
- IC50 (PRKDC): > 10 µM
- IC50 (EEF2K): > 10 µM
- IC50 (TRIM33): > 10 µM
- IC50 (VRK3): > 10 µM
- IC50 (CDC7): > 10 µM
- IC50 (NRK): > 10 µM
- IC50 (TTN): > 10 µM
- IC50 (BRD4): > 10 µM
Compound: Cc1ccc(NC(=O)c2ccc(CN3CCN(C)CC3)cc2)cc1Nc1nccc(-c2cccnc2)n1 [Imatinib]

Compound: N#CCc1ccc(Nc2nc(NCCCN)cc(Nc3cc(C4CC4)[nH]n3)n2)cc1 [KAM]
- IC50 (ATM; KAM 0.001-10 uM, read-out: RB50 (the source's name)): > 10 µM
- 0.001 uM KAM (ATM; relative to 0 uM KAM = 0): -0.06745
- 0.01 uM KAM (ATM; relative to 0 uM KAM = 0): -0.02165
- 0.1 uM KAM (ATM; relative to 0 uM KAM = 0): -0.03764
- 1 uM KAM (ATM; relative to 0 uM KAM = 0): -0.07001
- 10 uM KAM (ATM; relative to 0 uM KAM = 0): 0.01755
- median Log10 fold change (ABL1; 0.001 uM KAM): -0.005017
- median Log10 fold change (ABL1; 0.01 uM KAM): -0.004253
- median Log10 fold change (ABL1; 0.1 uM KAM): -0.1612
- median Log10 fold change (ABL1; 1 uM KAM): -0.353
- median Log10 fold change (ABL1; 10 uM KAM): -0.4826
- IC50 (ABL1; ABL1, KAM-based affinity matrix, K562 lysates, read-out: RB50 (the source's name)): 0.759 µM
